From ChEMBL document CHEMBL1152981 (J Med Chem, 2009)
The source made the active and inactive calls. The calls are words filed in the database; no cut-off is given here.

What was measured:
[1] = target: Glutamate NMDA receptor; assay: Displacement of [3H]glycine from strychnine-insensitive glycine recognition site of NMDA receptor in rat brain cortex membrane; format: cell membranes
[2] = target: Glutamate NMDA receptor; assay: Displacement of [3H]CGP39653 from glutamate recognition site of NMDA receptor in rat brain cortex membrane in presence of glycine antagonist 5,7-dichlorokynurenic acid; format: cell membranes
[3] = target: T1, Glutamate NMDA receptor (Rattus norvegicus) (UniProt P35439+Q00959+Q00960+Q00961+Q62645+Q8VHN2+Q9R1M7); assay: Displacement of [3H]MK-801 from ion channel site of NMDA receptor in rat brain cortex membrane; format: cell membranes
[4] = target: T1, Glutamate NMDA receptor (Rattus norvegicus); assay: Displacement of [3H]spermidine from polyamine site of NMDA receptor in rat brain cortex membrane; format: cell membranes
[5] = Partial agonist activity at glycine site of NMDA receptor in rat brain cortex membrane assessed as potentiation of [3H]Mk-801 binding by liquid scintillation counting; format: cell membranes
[6] = target: T1, Glutamate NMDA receptor (Rattus norvegicus); assay: Displacement of [3H]glycine from strychnine-insensitive glycine recognition site of NMDA receptor in rat brain cortex membrane at 3 uM; format: cell membranes
[7] = target: T1, Glutamate NMDA receptor (Rattus norvegicus); assay: Antagonist activity at glycine site of NMDA receptor in rat brain cortex membrane assessed as inhibition of [3H]Mk-801 binding by liquid scintillation counting in presence of antagonist 5,7-dichlorokynurenic acid

SMILES | pKi [1] | pKi [2] | also measured
CCc1ccccc1-c1cccc2[nH]c(C(=O)NC[C@@H](N)C(=O)O)cc12 | 7.6 | 5.4 | Activity [3]: inactive; Activity [4]: inactive; pEC50 [5]: 7.7
N[C@H](CNC(=O)c1cc2c(Br)cccc2[nH]1)C(=O)O | 7 | 4.6 | Activity [3]: inactive; Activity [4]: inactive; pEC50 [5]: 6.6
CC(O)[C@@H](N)C(=O)O (stereo not given in full) | – | – | Activity [6]: inactive
COC[C@@H](N)C(=O)O | – | – | Activity [6]: inactive
NC(CNC(=O)c1cc2c(-c3ccc(Cl)cc3Cl)cccc2s1)C(=O)O (racemic) | 4.7 | < 4.5 | Activity [3]: inactive; Activity [4]: inactive; pA2 [5]: 5.1
NC(CNC(=O)c1cc2ccc(Cl)cc2[nH]1)C(=O)O (racemic) | 4.9 | – | –
NC(CNC(=O)c1cc2cccc(Cl)c2[nH]1)C(=O)O (racemic) | 5.5 | – | –
CCCc1c(C(=O)NCC(N)C(=O)O)[nH]c2cccc(-c3ccccc3CC)c12 (racemic) | 6.8 | 5.3 | –
CCCc1ccccc1-c1cccc2[nH]c(C(=O)NCC(N)C(=O)O)cc12 (racemic) | 7.3 | 5.4 | pEC50 [5]: 7.6
NC(CNC(=O)c1cc2cc(Cl)ccc2[nH]1)C(=O)O (racemic) | 4.7 | – | –
NC(CNC(=O)c1cc2c(Cl)ccc(Cl)c2[nH]1)C(=O)O (racemic) | 6.8 | 4 | pA2 [5]: 6.2
CCc1ccccc1-c1cccc2sc(C(=O)NCC(N)C(=O)O)cc12 (racemic) | 6.2 | 3.9 | Activity [3]: inactive; Activity [4]: inactive
NC(CNC(=O)c1cc2c(Br)cccc2[nH]1)C(=O)O (racemic) | 6.8 | 4.7 | –
NC(CNC(=O)Cc1c[nH]c2ccccc12)C(=O)O (racemic) | < 4 | – | –
NC(CNC(=O)c1ccc2ccccc2c1)C(=O)O (racemic) | 5.9 | < 4 | Activity [3]: inactive; Activity [4]: inactive
NC(CNC(=O)c1cc2c(-c3ccccc3)cccc2[nH]1)C(=O)O (racemic) | 5.6 | 4.7 | –

SMILES | pKi [1] | pKi [2] | also measured
NC(CNC(=O)Cc1c[nH]c2cccc(Br)c12)C(=O)O (racemic) | 4.3 | < 4 | –
CCc1ccccc1-c1cccc2cc(C(=O)NCC(N)C(=O)O)ccc12 (racemic) | 5.7 | 4.5 | –
NC(CNC(=O)c1cc2c(Cl)cccc2[nH]1)C(=O)O (racemic) | 6 | 4.1 | –
Cc1ccccc1-c1cccc2[nH]c(C(=O)NCC(N)C(=O)O)cc12 (racemic) | 6.5 | 5.2 | pEC50 [5]: 6.9
COc1ccccc1-c1cccc2[nH]c(C(=O)NCC(N)C(=O)O)cc12 (racemic) | 5.6 | 4.3 | –
CCc1ccccc1-c1ccc(Cl)c2[nH]c(C(=O)NCC(N)C(=O)O)cc12 (racemic) | 6.9 | < 4.5 | –
NC(CNC(=O)c1ccc2c(Br)cccc2c1)C(=O)O (racemic) | 6.6 | 4.3 | –
CC(C)c1ccccc1-c1cccc2[nH]c(C(=O)NCC(N)C(=O)O)cc12 (racemic) | 7.3 | 5.6 | –
CN(C)c1ccccc1-c1cccc2[nH]c(C(=O)NCC(N)C(=O)O)cc12 (racemic) | 5.8 | 4.1 | pEC50 [5]: 6.5
NC(CNC(=O)c1cccc2ccccc12)C(=O)O (racemic) | 5.9 | < 4 | –
CCc1ccccc1-c1cccc2c1cc(C(=O)NCC(N)C(=O)O)n2C (racemic) | 3.9 | – | –
NC(CNC(=O)c1ccc2ccccc2n1)C(=O)O (racemic) | 5.6 | < 4 | –
CCc1ccccc1-c1cccc2[nH]c(C(=O)NCC(N)C(=O)O)cc12 (racemic) | 7.5 | 4.9 | –
NC(CNC(=O)c1cc2c(-c3ccccc3Cc3ccccc3)cccc2[nH]1)C(=O)O (racemic) | 6 | < 5.5 | pEC50 [5]: 6.5
NC(CNC(=O)c1[nH]c2cccc(Br)c2c1[N+](=O)[O-])C(=O)O (racemic) | 6.1 | 4.9 | –
C[C@@H]1CN(O)C(=O)[C@@H]1N (relative stereo) | – | – | Activity [7]: Active

The next lines start with results.

pKi [1] | pKi [2] | SMILES | also measured
< 4 | – | CC(N)(CO)C(=O)O (stereo not given) | –
5.9 | – | CCCCCC/C=C/[C@H](N)C(=O)O | –
< 4 | – | CC[C@@H](N)C(=O)O | –
6.6 | – | N[C@@H](/C=C/CCO)C(=O)O | –
< 4 | – | C=CC[C@@H](N)C(=O)O | –
< 4 | – | NC(C(=O)O)C1CC1 (stereo not given) | –
< 3 | – | NC1(C(=O)O)CCCCC1 | –
5.3 | 3.8 | N[C@H](CNC(=O)c1cc2ccccc2[nH]1)C(=O)O | Activity [3]: inactive; Activity [4]: inactive; pEC50 [5]: 5.3
< 4 | – | N[C@@H](CNC(=O)c1cc2ccccc2[nH]1)C(=O)O | –
5.4 | – | CCC/C=C/[C@H](N)C(=O)O | –
< 4 | – | CCNC(=O)NCC(N)C(=O)O (racemic) | –
4.9 | – | NC(CNC(=O)c1ccco1)C(=O)O (racemic) | Activity [3]: inactive; Activity [4]: inactive; pEC50 [5]: 5.1
4.1 | – | COC(=O)NCC(N)C(=O)O (racemic) | –
5.9 | < 4 | N#Cc1cccc2sc(C(=O)NCC(N)C(=O)O)cc12 (racemic) | Activity [3]: inactive; Activity [4]: inactive; pA2 [5]: 5.5
5.4 | – | NC(CNC(=O)c1c[nH]c2ccccc12)C(=O)O (racemic) | Activity [3]: inactive; Activity [4]: inactive
6.5 | < 4 | NC(CNC(=O)c1cc2c(Cl)cccc2s1)C(=O)O (racemic) | –

pKi [1] | pKi [2] | SMILES | also measured
5.9 | 4.1 | COc1cccc2[nH]c(C(=O)NCC(N)C(=O)O)cc12 (racemic) | –
4.9 | – | Cn1c(C(=O)NCC(N)C(=O)O)cc2ccccc21 (racemic) | –
5.5 | < 4 | NC(CNC(=O)C1=Cc2ccccc2C1)C(=O)O (racemic) | –
5 | – | Cn1c(C(=O)NCC(N)C(=O)O)cc2c(Br)cccc21 (racemic) | –
< 4 | – | NC(CNC(=O)C1Cc2ccccc2C1)C(=O)O (racemic) | –
6.4 | < 4 | NC(CNC(=O)c1cc2c(Br)cccc2s1)C(=O)O (racemic) | Activity [3]: inactive; Activity [4]: inactive
4.9 | – | NC(CNC(=O)c1ccc[nH]1)C(=O)O (racemic) | Activity [3]: inactive; Activity [4]: inactive; pEC50 [5]: 5
5.2 | < 4 | NC(CNC(=O)c1cc2ccccc2o1)C(=O)O (racemic) | –
4.4 | – | NC(CNC(=O)c1ccccn1)C(=O)O (racemic) | –
6.3 | 3.8 | CCCc1c(C(=O)NCC(N)C(=O)O)[nH]c2ccccc12 (racemic) | Activity [3]: inactive; Activity [4]: inactive; pA2 [5]: 5.7
5.5 | – | Cc1c(C(=O)NCC(N)C(=O)O)[nH]c2ccccc12 (racemic) | –
6.5 | 4.2 | CCCc1c(C(=O)NCC(N)C(=O)O)[nH]c2cccc(Br)c12 (racemic) | pA2 [5]: 6
4.8 | – | NC1(C(=O)O)CCC1 [1-AMINOCYCLOBUTANE CARBOXYLIC ACID] | –
6.8 | – | NC1(C(=O)O)CC1 [1-Aminocyclopropane carboxylic acid] | –
2.7 | – | NC1(C(=O)O)CCCC1 [CYCLOLEUCINE] | –
6.2 | – | C[C@@H](N)C(=O)O [D-ALANINE] | –
